In patent US11795171B2, “Pyrrolotriazinones and imidazotriazinones as ubiquitin-specific protease 7 inhibitors” (Valo Health, Inc., priority 2014, dated 2023) one finds IC50 data, which are given here for 28 molecules.

Broadly, the IC50 is the concentration that gives 50% inhibition.

Some results are limits rather than exact numbers.

USP7, sequence (Q93009 208-1102): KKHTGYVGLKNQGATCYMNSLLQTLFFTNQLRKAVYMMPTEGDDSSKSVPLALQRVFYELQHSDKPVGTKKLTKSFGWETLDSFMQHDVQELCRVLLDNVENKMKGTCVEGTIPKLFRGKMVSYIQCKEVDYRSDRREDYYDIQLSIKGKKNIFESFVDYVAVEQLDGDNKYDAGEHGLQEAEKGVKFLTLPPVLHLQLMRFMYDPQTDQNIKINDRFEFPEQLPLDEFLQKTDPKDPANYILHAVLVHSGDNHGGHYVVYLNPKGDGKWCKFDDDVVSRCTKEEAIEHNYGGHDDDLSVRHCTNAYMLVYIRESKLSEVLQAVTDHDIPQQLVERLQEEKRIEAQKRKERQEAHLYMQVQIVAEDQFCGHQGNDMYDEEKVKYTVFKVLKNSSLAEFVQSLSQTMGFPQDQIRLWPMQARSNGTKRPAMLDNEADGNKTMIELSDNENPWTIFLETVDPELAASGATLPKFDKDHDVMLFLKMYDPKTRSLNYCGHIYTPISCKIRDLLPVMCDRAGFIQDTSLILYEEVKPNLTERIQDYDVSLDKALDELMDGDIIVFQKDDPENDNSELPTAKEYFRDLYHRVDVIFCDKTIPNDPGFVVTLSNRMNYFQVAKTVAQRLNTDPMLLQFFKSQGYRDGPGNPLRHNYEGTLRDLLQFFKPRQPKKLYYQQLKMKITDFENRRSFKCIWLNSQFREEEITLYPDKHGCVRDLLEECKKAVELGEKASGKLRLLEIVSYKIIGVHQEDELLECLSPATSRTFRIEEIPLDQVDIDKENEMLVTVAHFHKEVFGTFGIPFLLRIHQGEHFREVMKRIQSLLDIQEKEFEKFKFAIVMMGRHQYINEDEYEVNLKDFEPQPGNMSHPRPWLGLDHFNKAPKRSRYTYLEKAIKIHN

The assay has as its target USP7 (Homo sapiens (Human), UniProt Q93009). Description: USP7 Assay B (Ubitquin-Rhodamine110 Assay). In kind it is biochemical. The settings on record: Ub-Rh110 substrate 25 nM. The protocol: Stock compound solutions were stored at −20° C. as 10 mM in DMSO. […] Prestamped assay plates were allowed to come to room temperature on the day of the assay. For the screen, 100 nL of 2 mM was pre-dispensed for a final screening concentration of 10 μM (DMSO(fc)=0.5%). […] Unless otherwise indicated, all follow-up assays were run on triplecate plates. […] Pre-stamped with compounds were either not preincubated or preincubated with USP7 between 30 to 120 minutes prior to the addition of 10 μL of 2×Ub-Rh110 to compound plates. Plates were incubated stacked for either 23 or 45 minutes at room temperature before fluorescence was read on the Envision (Excitation at 485 nm and Emission at 535 nm; Perkin Elmer) or on the PheraSTAR (Excitation at 485 nm and Emission at 535 nm; BMG Labtech).
Data from USP7 Assays A and B were reported as percent inhibition (inh) compared with control wells based on the following equation: % inh=1−((FLU−AveLow)/(AveHigh−AveLow)) where FLU=measured Fluorescence (See Tables 2 and 3). AveLow=average Fluorescence of no enzyme control (n=16). AveHigh=average Fluorescence of DMSO control (n=16). IC50 values were determined by curve fitting of the standard 4 parameter logistic fitting algorithm included in the Activity Base software package: IDBS XE Designer Model205. Data is fitted using the Levenburg Marquardt algorithm.
`Cc1ccc(NC(=O)Nc2cc3c(=O)n(CC4(O)CCN(C(=O)C5CC5)CC4)cnn3c2)cc1` [Compound I-89, 1-(3-((1-(cyclopropanecarbonyl)-4-hydroxypiperidin-4-yl)methyl)-4-oxo-3,4-dihydropyrrolo[2,1-f][1,2,4]triazin-6-yl)-3-(p-tolyl)urea]: the IC50 is > 10 µM.

Consider `O=C(c1cccc(-c2ccccc2F)c1)N1CCC(O)(Cn2cnn3cccc3c2=O)CC1` [Compound I-29, 3-((1-(2′-fluoro-[1,1′-biphenyl]-3-carbonyl)-4-hydroxypiperidin-4-yl)methyl)pyrrolo[2,1-f][1,2,4]triazin-4(3H)-one], for which the IC50 was 1 to 10 µM.

In the case of `O=C(c1ccc(Cc2cccs2)cc1)N1CCC(O)(Cn2cnn3cccc3c2=O)CC1` [Compound I-70, 3-((4-hydroxy-1-(4-(thiophen-2-ylmethyl)benzoyl)piperidin-4-yl)methyl)pyrrolo[2,1-f][1,2,4]triazin-4(3H)-one], the IC50 fell in the range of 1 to 10 µM.

Turning to `O=C(Nc1cc2c(=O)n(CC3(O)CCN(C(=O)C4CC4)CC3)cnn2c1)c1ccc(Cl)cc1Cl` [Compound I-111, 2,4-dichloro-N-(3-((1-(cyclopropanecarbonyl)-4-hydroxypiperidin-4-yl)methyl)-4-oxo-3,4-dihydropyrrolo[2,1-f][1,2,4]triazin-6-yl)benzamide], the IC50 is > 10 µM.

Regarding `COc1ccc(OC)c(-c2ccc(C(=O)N3CCC(O)(Cn4cnn5cccc5c4=O)CC3)cc2)c1` [Compound I-40, 3-((1-(2′,5′-dimethoxy-[1,1′-biphenyl]-4-carbonyl)-4-hydroxypiperidin-4-yl)methyl)pyrrolo[2,1-f][1,2,4]triazin-4(3H)-one], the IC50 is > 10 µM.

`O=C(c1ccc(Cn2cccn2)cc1)N1CCC(O)(Cn2cnn3cccc3c2=O)CC1` [Compound I-65, 3-((1-(4-((1H-pyrazol-1-yl)methyl)benzoyl)-4-hydroxypiperidin-4-yl)methyl)pyrrolo[2,1-f][1,2,4]triazin-4(3H)-one] yielded an IC50 of 1 to 10 µM.

Regarding `CCN(c1ccccc1)c1ccc(C(=O)N2CCC(O)(Cn3cnn4cccc4c3=O)CC2)cc1` [Compound I-72, 3-((1-(4-(ethyl(phenyl)amino)benzoyl)-4-hydroxypiperidin-4-yl)methyl)pyrrolo[2,1-f][1,2,4]triazin-4(3H)-one], the IC50 is 1 to 10 µM.

Turning to `O=C(c1ccc(-c2ccc3ncccc3c2)cc1)N1CCC(O)(Cn2cnn3cccc3c2=O)CC1` [Compound I-43, 3-((4-hydroxy-1-(4-(quinolin-6-yl)benzoyl)piperidin-4-yl)methyl)pyrrolo[2,1-f][1,2,4]triazin-4(3H)-one], the IC50 lay in the range of 1 to 10 µM.

As for `CCNC(=O)c1ccc(-c2ccc(C(=O)N3CCC(O)(Cn4cnn5cccc5c4=O)CC3)cc2)cc1` [Compound I-41, N-ethyl-4′-(4-hydroxy-4-((4-oxopyrrolo[2,1-f][1,2,4]triazin-3(4H)-yl)methyl)piperidine-1-carbonyl)-[1,1′-biphenyl]-4-carboxamide], the IC50 is > 10 µM.

In turn, `COc1ccc(-c2cccc(C(=O)N3CCC(O)(Cn4cnn5cccc5c4=O)CC3)c2)cc1` [Compound I-8, 3-((4-hydroxy-1-(4′-methoxy-[1,1′-biphenyl]-3-carbonyl)piperidin-4-yl)methyl)pyrrolo[2,1-f][1,2,4]triazin-4(3H)-one] gave an IC50 of 1 to 10 µM.

Consider `O=C(c1ccc(Oc2ccccc2)cc1)N1CCC(O)(Cn2cnn3cccc3c2=O)CC1` [Compound I-80, 3-((4-hydroxy-1-(4-phenoxybenzoyl)piperidin-4-yl)methyl)pyrrolo[2,1-f][1,2,4]triazin-4(3H)-one], for which the IC50 was > 10 µM.

`Cc1ccc2[nH]ncc2c1-c1cccc(C(=O)N2CCC(O)(Cn3cnn4cccc4c3=O)CC2)c1` [Compound I-24, 3-((4-hydroxy-1-(3-(5-methyl-1H-indazol-4-yl)benzoyl)piperidin-4-yl)methyl)pyrrolo[2,1-f][1,2,4]triazin-4(3H)-one] registered an IC50 of 1 to 10 µM.

The molecule `O=C(c1cccc(-c2ccc(Cl)cc2)c1)N1CCC(O)(Cn2cnn3cccc3c2=O)CC1` [Compound I-12, 3-((1-(4′-chloro-[1,1′-biphenyl]-3-carbonyl)-4-hydroxypiperidin-4-yl)methyl)pyrrolo[2,1-f][1,2,4]triazin-4(3H)-one] gave an IC50 of 1 to 10 µM.

`CC(CC(=O)N1CCC(O)(Cn2cnn3cc(Cl)cc3c2=O)CC1)c1ccccc1` (stereo not shown) [Compound I-49, 6-chloro-3-((4-hydroxy-1-(3-phenylbutanoyl)piperidin-4-yl)methyl)pyrrolo[2,1-f][1,2,4]triazin-4(3H)-one] had an IC50 of 1 to 10 µM.

Regarding `O=C(c1ccc(-c2ccc3ncnn3c2)cc1)N1CCC(O)(Cn2cnn3cccc3c2=O)CC1` [Compound I-48, 3-((1-(4-([1,2,4]triazolo[1,5-a]pyridin-6-yl)benzoyl)-4-hydroxypiperidin-4-yl)methyl)pyrrolo[2,1-f][1,2,4]triazin-4(3H)-one], the IC50 is > 10 µM.

On to `O=C(c1ccc(-c2ccc(C(=O)N3CCC(O)(Cn4cnn5cccc5c4=O)CC3)c(Cl)c2)cc1)N1CCCC1` [Compound I-51, 3-((1-(3-chloro-4′-(pyrrolidine-1-carbonyl)-[1,1′-biphenyl]-4-carbonyl)-4-hydroxypiperidin-4-yl)methyl)pyrrolo[2,1-f][1,2,4]triazin-4(3H)-one], for which the IC50 lay in the range of 1 to 10 µM.

In the case of `O=C(c1ccc(-c2ccc(C(=O)N3CCC(O)(Cn4cnn5cccc5c4=O)CC3)c(Cl)c2)cc1)N1CCCCC1` [Compound I-79, 3-((1-(3-chloro-4′-(piperidine-1-carbonyl)-[1,1′-biphenyl]-4-carbonyl)-4-hydroxypiperidin-4-yl)methyl)pyrrolo[2,1-f][1,2,4]triazin-4(3H)-one], the IC50 was 1 to 10 µM.

For the molecule `Cn1cnc2cc(-c3ccc(C(=O)N4CCC(O)(Cn5cnn6cccc6c5=O)CC4)cc3)ccc21` [Compound I-46, 3-((4-hydroxy-1-(4-(1-methyl-1H-benzo[d]imidazol-5-yl)benzoyl)piperidin-4-yl)methyl)pyrrolo[2,1-f][1,2,4]triazin-4(3H)-one], the IC50 is > 10 µM.

As for `CC(C)(c1ccccc1)c1ccc(C(=O)N2CCC(O)(Cn3cnn4cccc4c3=O)CC2)cc1` [Compound I-55, 3-((4-hydroxy-1-(4-(2-phenylpropan-2-yl)benzoyl)piperidin-4-yl)methyl)pyrrolo[2,1-f][1,2,4]triazin-4(3H)-one], the IC50 fell in the range of 1 to 10 µM.

As for `O=C(c1cccc(-c2cccs2)c1)N1CCC(O)(Cn2cnn3cccc3c2=O)CC1` [Compound I-27, 3-((4-hydroxy-1-(3-(thiophen-2-yl)benzoyl)piperidin-4-yl)methyl)pyrrolo[2,1-f][1,2,4]triazin-4(3H)-one], the 50% inhibitory concentration (IC50) was > 10 µM.

`Cc1ccc(-c2cccc(C(=O)N3CCC(O)(Cn4cnn5cccc5c4=O)CC3)c2)s1` [Compound I-20, 3-((4-hydroxy-1-(3-(5-methylthiophen-2-yl)benzoyl)piperidin-4-yl)methyl)pyrrolo[2,1-f][1,2,4]triazin-4(3H)-one]: the IC50 is > 10 µM.

For `O=C(Cc1c(Cl)cccc1Cl)Nc1cc2c(=O)n(CC3(O)CCN(C(=O)C4CC4)CC3)cnn2c1` [Compound I-103, N-(3-((1-(cyclopropanecarbonyl)-4-hydroxypiperidin-4-yl)methyl)-4-oxo-3,4-dihydropyrrolo[2,1-f][1,2,4]triazin-6-yl)-2-(2,6-dichlorophenyl)acetamide], the IC50 is > 10 µM.

Take `O=C(c1ccc(-c2ccc3ocnc3c2)cc1)N1CCC(O)(Cn2cnn3cccc3c2=O)CC1` [Compound I-47, 3-((1-(4-(benzo[d]oxazol-5-yl)benzoyl)-4-hydroxypiperidin-4-yl)methyl)pyrrolo[2,1-f][1,2,4]triazin-4(3H)-one]: the IC50 is > 10 µM.

For `Cc1ccccc1-c1cccc(C(=O)N2CCC(O)(Cn3cnn4cccc4c3=O)CC2)c1` [Compound I-6, 3-((4-hydroxy-1-(2′-methyl-[1,1′-biphenyl]-3-carbonyl)piperidin-4-yl)methyl)pyrrolo[2,1-f][1,2,4]triazin-4(3H)-one], the IC50 fell in the range of 1 to 10 µM.

For `CNC(=O)Nc1cc2c(=O)n(CC3(O)CCN(C(=O)C[C@@H](C)c4ccccc4)CC3)cnn2c1` [Compound I-82, (R)-1-(3-((4-hydroxy-1-(3-phenylbutanoyl)piperidin-4-yl)methyl)-4-oxo-3,4-dihydropyrrolo[2,1-f][1,2,4]triazin-6-yl)-3-methylurea], the IC50 lay in the range of 0.2 to 1 µM.

`NC(=O)c1ccc(-c2cccc(C(=O)N3CCC(O)(Cn4cnn5cccc5c4=O)CC3)c2)cc1` [Compound I-16, 3′-(4-hydroxy-4-((4-oxopyrrolo[2,1-f][1,2,4]triazin-3(4H)-yl)methyl)piperidine-1-carbonyl)-[1,1′-biphenyl]-4-carboxamide]: the IC50 lay in the range of 1 to 10 µM.

As to `O=C(c1cccc(-c2ccccc2)c1)N1CCC(O)(Cn2cnn3cccc3c2=O)CC1` [Compound I-11, 3-((1-([1,1′-biphenyl]-3-carbonyl)-4-hydroxypiperidin-4-yl)methyl)pyrrolo[2,1-f][1,2,4]triazin-4(3H)-one], the IC50 lay within 1 to 10 µM.

Molecule `O=C(c1ccc(S(=O)(=O)c2ccccc2)cc1)N1CCC(O)(Cn2cnn3cccc3c2=O)CC1` [Compound I-61, 3-((4-hydroxy-1-(4-(phenylsulfonyl)benzoyl)piperidin-4-yl)methyl)pyrrolo[2,1-f][1,2,4]triazin-4(3H)-one] returned an IC50 of 1 to 10 µM.
